Experimental findings from ChEMBL document CHEMBL1150976, “The selectivity of protein kinase inhibitors: a further update” (Biochem J, 2007) are described below.

For test [1], the target named is Mitogen-activated protein kinase 1 (Homo sapiens) (UniProt P28482). In words: Percentage ERK2 activity remaining in the presence of 0.01uM inhibitor.
The target in test [2] is Myosin light chain kinase, smooth muscle (Homo sapiens, UniProt Q15746). In words: Percentage SmMLCK activity remaining in the presence of 0.01uM inhibitor.
Myosin light chain kinase, smooth muscle, sequence (Q15746 whole entry): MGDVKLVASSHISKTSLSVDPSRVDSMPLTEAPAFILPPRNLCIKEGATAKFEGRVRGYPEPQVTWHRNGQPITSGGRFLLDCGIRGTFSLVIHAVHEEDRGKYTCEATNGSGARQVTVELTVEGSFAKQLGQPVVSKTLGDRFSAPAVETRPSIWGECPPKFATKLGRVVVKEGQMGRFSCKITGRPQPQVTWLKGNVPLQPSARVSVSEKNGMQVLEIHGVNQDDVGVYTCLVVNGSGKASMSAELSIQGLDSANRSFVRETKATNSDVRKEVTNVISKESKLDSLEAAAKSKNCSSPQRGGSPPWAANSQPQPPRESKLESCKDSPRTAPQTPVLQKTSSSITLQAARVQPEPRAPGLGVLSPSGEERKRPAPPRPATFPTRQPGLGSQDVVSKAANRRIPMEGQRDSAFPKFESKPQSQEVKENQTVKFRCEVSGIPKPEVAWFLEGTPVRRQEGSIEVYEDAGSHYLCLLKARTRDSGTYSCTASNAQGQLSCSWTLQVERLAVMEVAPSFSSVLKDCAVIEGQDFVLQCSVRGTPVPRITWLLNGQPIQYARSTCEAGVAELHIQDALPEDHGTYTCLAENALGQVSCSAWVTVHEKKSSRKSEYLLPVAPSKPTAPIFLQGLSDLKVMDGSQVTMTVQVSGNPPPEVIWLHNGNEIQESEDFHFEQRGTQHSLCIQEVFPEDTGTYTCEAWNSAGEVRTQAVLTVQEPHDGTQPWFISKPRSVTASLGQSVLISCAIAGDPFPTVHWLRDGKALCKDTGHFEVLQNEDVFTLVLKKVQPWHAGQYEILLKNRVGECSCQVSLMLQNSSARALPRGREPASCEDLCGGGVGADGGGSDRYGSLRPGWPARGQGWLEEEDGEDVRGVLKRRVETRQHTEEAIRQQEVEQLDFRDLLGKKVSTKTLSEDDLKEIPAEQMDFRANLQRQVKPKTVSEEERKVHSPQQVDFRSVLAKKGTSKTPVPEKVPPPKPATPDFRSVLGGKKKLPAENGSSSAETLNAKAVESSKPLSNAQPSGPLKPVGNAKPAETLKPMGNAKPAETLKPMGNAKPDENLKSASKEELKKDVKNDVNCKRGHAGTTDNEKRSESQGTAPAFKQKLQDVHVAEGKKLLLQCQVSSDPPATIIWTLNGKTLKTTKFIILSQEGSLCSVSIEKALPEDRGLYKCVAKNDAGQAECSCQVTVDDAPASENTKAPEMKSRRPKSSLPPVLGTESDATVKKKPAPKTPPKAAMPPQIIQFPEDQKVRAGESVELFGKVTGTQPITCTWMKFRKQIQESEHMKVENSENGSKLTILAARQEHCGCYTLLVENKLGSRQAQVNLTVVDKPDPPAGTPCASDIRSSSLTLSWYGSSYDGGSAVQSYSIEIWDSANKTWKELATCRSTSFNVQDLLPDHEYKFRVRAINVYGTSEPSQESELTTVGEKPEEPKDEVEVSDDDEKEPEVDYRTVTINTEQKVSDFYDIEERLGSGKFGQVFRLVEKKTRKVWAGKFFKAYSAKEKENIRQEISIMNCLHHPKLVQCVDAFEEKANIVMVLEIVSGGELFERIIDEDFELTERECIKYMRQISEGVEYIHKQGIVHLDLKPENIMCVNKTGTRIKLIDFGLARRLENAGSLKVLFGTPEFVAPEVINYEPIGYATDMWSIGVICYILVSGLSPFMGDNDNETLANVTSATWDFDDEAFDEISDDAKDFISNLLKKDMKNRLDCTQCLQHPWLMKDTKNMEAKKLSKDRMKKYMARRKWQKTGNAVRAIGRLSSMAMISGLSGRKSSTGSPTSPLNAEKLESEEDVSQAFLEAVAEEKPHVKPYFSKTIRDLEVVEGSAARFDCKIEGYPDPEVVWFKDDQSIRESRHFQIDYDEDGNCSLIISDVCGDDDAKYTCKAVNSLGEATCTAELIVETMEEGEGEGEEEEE
The target of test [3] is T1, 3-phosphoinositide-dependent protein kinase 1 (Homo sapiens) (UniProt O15530).
T1 sequence (whole entry): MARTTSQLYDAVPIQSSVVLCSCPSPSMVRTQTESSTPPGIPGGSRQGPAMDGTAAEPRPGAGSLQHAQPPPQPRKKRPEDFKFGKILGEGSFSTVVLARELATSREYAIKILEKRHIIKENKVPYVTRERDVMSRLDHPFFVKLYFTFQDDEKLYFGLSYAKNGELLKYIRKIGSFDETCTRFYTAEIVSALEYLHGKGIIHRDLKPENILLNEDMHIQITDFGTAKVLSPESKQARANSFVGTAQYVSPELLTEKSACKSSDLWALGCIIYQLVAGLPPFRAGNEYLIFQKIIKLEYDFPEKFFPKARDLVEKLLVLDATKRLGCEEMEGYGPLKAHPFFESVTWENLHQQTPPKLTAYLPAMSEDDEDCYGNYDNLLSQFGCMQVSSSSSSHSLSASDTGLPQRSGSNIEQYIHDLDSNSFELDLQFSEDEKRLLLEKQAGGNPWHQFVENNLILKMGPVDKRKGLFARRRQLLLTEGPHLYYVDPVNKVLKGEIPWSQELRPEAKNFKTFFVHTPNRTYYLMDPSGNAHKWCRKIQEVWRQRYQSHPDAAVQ
In words: Percentage PDK1 activity remaining in the presence of 0.01uM inhibitor. Conditions: filed as antagonist.

The target of test [4] is T2, Protein kinase C zeta type (Homo sapiens) (UniProt Q05513).
T2 sequence (whole entry): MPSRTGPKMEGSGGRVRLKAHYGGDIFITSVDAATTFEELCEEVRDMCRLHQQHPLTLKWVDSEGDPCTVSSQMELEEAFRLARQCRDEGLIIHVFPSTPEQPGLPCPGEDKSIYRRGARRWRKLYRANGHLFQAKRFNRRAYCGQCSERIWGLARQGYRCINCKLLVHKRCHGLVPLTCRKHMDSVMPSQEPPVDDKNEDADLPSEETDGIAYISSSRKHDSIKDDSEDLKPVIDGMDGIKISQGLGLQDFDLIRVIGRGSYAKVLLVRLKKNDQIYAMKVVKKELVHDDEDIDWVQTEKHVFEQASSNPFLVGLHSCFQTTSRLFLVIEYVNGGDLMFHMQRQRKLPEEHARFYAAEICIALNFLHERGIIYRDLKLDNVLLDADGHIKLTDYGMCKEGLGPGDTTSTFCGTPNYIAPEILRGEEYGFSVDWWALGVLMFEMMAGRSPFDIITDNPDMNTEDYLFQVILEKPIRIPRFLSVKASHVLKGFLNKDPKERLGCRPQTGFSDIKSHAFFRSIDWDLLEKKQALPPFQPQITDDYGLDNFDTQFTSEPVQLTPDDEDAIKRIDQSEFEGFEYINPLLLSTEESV
In words: Percentage PKCzeta activity remaining in the presence of 25uM inhibitor.

For test [5], the target named is Mitogen-activated protein kinase 1 (Homo sapiens) (UniProt P28482). In words: Percentage ERK2 activity remaining in the presence of 25uM inhibitor.
Test [6] concerns the target Mitogen-activated protein kinase 3 (Homo sapiens) (UniProt P27361). In words: Percentage ERK1 activity remaining in the presence of 25uM inhibitor.
The target in test [7] is Ribosomal protein S6 kinase alpha-3 (Homo sapiens) (UniProt P51812). Briefly: Percentage RSK2 activity remaining in the presence of 25uM inhibitor.
Ribosomal protein S6 kinase alpha-3 (Homo sapiens), sequence (P51812 whole entry): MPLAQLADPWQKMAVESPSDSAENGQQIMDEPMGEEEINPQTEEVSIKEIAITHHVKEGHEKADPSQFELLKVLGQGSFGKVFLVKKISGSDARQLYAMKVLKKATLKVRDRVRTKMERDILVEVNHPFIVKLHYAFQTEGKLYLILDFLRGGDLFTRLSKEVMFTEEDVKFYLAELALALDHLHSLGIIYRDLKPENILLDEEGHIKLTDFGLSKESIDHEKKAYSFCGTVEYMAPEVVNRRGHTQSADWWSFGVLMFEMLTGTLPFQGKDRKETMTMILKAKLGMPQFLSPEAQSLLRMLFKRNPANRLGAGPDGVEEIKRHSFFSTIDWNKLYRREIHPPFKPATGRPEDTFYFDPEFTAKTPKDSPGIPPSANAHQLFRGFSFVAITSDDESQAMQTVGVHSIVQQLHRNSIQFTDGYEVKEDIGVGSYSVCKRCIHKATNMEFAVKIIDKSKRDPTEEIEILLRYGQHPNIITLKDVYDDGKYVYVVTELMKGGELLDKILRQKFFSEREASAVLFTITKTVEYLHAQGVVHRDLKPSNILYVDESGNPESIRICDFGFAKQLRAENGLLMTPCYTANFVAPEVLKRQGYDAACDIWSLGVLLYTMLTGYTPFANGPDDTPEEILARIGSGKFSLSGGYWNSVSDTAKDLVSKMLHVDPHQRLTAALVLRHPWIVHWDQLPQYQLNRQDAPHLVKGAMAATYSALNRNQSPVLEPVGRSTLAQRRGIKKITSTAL
The target in test [8] is Serine/threonine-protein kinase Nek6 (Homo sapiens) (UniProt Q9HC98). In words: Percentage NEK6 activity remaining in the presence of 25uM inhibitor.
Serine/threonine-protein kinase Nek6 (Homo sapiens), sequence (Q9HC98 whole entry): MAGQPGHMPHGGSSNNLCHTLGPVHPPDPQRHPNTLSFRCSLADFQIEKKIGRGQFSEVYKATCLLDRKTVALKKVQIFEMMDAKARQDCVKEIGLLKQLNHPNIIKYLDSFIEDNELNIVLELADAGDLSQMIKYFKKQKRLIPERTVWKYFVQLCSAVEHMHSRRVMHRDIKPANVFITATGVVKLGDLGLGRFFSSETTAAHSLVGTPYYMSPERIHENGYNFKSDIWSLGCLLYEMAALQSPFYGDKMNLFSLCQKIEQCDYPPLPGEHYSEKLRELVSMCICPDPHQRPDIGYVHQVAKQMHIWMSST
The target of test [9] is T3, Serine/threonine-protein kinase BRSK2 (Homo sapiens) (UniProt Q8IWQ3).
T3 sequence (whole entry): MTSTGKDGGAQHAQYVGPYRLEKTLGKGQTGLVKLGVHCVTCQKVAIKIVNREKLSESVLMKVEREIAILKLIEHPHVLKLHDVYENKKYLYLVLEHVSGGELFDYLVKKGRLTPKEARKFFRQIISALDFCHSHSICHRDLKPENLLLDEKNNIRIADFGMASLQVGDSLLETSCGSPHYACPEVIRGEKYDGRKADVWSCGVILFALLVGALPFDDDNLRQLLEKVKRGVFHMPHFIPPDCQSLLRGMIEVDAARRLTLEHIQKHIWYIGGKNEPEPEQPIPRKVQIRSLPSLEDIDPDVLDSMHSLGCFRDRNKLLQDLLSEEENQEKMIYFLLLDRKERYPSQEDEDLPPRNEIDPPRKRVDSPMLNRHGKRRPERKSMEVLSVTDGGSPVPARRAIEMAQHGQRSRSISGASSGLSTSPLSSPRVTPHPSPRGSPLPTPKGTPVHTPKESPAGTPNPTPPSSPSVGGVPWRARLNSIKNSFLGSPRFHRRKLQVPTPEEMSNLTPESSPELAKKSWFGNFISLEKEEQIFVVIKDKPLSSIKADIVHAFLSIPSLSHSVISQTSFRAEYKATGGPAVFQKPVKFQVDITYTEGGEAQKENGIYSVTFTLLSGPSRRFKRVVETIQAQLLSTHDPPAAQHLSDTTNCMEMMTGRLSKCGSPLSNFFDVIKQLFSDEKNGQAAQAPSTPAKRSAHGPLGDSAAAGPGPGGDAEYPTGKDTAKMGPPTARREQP
Briefly: Percentage BRSK2 activity remaining in the presence of 25uM inhibitor.

Test [10] has as its target Proto-oncogene tyrosine-protein kinase Src (Gallus gallus) (UniProt P00523). In words: Percentage Src activity remaining in the presence of 25uM inhibitor.
For test [11], the target named is MAP kinase-activated protein kinase 3 (Homo sapiens) (UniProt Q16644). Briefly: Percentage MAPKAPK3 activity remaining in the presence of […]uM inhibitor. The following applies: at 25 µM.
MAP kinase-activated protein kinase 3 (Homo sapiens), sequence (Q16644 whole entry, looked up): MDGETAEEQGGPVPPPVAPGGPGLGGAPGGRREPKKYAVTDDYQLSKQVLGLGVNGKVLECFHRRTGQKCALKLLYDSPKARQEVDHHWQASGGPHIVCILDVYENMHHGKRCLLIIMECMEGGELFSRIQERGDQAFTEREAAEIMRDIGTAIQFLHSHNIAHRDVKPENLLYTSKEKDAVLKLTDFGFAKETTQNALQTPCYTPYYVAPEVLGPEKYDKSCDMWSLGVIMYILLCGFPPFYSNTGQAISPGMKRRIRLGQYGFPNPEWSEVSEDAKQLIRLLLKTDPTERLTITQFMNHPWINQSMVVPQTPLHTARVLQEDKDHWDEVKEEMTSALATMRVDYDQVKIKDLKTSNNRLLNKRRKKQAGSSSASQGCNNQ
For test [12], the target named is T4, Serine/threonine-protein kinase Chk1 (Homo sapiens) (UniProt O14757).
T4 sequence (whole entry): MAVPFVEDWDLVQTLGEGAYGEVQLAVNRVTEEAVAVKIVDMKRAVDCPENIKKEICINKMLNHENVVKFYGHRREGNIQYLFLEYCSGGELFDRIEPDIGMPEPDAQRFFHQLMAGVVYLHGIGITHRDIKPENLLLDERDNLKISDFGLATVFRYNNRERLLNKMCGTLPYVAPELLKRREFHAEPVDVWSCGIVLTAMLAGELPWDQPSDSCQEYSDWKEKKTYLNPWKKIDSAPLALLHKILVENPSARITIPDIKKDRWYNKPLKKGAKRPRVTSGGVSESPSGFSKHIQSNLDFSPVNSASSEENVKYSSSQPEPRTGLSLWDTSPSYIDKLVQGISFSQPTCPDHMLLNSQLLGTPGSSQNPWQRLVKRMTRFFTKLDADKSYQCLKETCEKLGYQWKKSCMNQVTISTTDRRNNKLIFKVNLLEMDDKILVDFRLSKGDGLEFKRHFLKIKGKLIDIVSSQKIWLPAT
Briefly: Percentage CHK1 activity remaining in the presence of 25uM inhibitor.

Mitogen-activated protein kinase 1 (Homo sapiens), sequence (P28482 whole entry): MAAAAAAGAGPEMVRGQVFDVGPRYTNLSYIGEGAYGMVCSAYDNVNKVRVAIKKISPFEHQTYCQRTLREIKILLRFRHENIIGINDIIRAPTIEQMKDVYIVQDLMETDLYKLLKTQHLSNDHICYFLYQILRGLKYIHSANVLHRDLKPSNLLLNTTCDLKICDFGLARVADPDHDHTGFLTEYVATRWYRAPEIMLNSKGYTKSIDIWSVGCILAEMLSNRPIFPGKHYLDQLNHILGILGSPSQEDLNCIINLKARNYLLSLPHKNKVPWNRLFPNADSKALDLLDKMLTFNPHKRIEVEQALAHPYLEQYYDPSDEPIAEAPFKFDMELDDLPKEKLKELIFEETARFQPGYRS
Mitogen-activated protein kinase 3 (Homo sapiens), sequence (P27361 whole entry): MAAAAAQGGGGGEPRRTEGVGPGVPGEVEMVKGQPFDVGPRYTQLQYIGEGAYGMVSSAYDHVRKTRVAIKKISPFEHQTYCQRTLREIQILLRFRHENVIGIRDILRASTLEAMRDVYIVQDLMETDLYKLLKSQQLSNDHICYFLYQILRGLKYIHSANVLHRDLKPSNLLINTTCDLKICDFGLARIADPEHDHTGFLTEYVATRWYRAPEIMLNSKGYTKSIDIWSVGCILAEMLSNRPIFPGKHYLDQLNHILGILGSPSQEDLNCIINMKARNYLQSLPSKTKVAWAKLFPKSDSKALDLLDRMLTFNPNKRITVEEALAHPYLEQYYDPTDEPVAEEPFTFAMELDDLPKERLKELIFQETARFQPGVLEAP

As for `Cc1n[nH]c2ccc(-c3cncc(OC[C@@H](N)Cc4c[nH]c5ccccc45)c3)cc12`, the Activity in test [1] was determined as 78%.
On to `O=C(NCCCNc1nc(Nc2cccc(NC(=O)N3CCCC3)c2)ncc1I)c1cccs1`, for which the Activity in test [1] is 88%; in [2], 110%; in test [3], 30%.
Consider `COc1cc(OC)c(/C=C2/C(=O)Nc3ccccc32)c(OC)c1`, for which the Activity was 80% in test [4]; 93% in test [5]; 91% in test [6]; 89% in test [7]; 95% in [8]; 88% in test [9]. Also, the Activity in test [10] stood at 70%; in test [11], 94%; in test [12], 99%.
Turning to `CN[C@@H]1C[C@H]2O[C@@](C)([C@@H]1OC)n1c3ccccc3c3c4c(c5c6ccccc6n2c5c31)C(=O)N[C@H]4O` (stereo in doubt), the Activity in test [2] is 83%; in test [3], 2%.
Consider `NCCNS(=O)(=O)c1ccc(Cl)c2ccncc12`, for which the Activity was 52% in test [4]; 100% in test [5]; 102% in [6]; 63% in test [7]; 90% in test [8]; 42% in test [9] (filed as antagonist). For the same compound, the Activity in [10] amounted to 92%; in test [11] it was 86%; in test [12], 86%.
